Assays:
[1] = test system: Il22, RegIIIγ, RegIIIβ, Il17A transcript expression in colon; experiment: Colon transcript expression by qRT-PCR in DSS-exposed mice treated with Ficz; type: in vivo, mouse
Procedure: (§1) To induce colitis, the mice were administered drinking water supplemented with 2% (w/v) dextran sulfate sodium (DSS; MP Biomedicals, LLC, Aurora, Ohio, USA) for 7 days, and then allowed to recover by drinking unsupplemented water for the next 5 days (FIG. 7 a). 6-formylindolo[3,2-b]carbazole (Ficz) was obtained from Enzo Life Sciences (Lausen, Switzerland) resuspended in dimethyl sulfoxide (DMSO; Sigma-Aldrich) and was administered intraperitoneally 1 day after DSS administration (1 μg/mouse). Controls consisted of mice injected with DMSO vehicle alone. For the antifungal treatment, mice were fed 0.5 mg/ml fluconazole in the drinking water (Sigma-Aldrich) 1 week before DSS administration and every day thereafter, as previously described^18. Body weight, gross blood, and stool consistency were analyzed daily. The severity of colitis was assessed using the disease activity index (DAI) as previously described (6).
Total RNA was isolated from colon samples using an RNeasy Mini Kit (Qiagen, Hilden, Germany), according to the manufacturer's instructions. Quantitative RT-PCR was performed using SuperScript II Reverse Transcriptase (Life Technologies, Saint Aubin, France) and then a Takyon SYBR Green PCR kit (Eurogentec, Liege, Belgium) in a StepOnePlus apparatus (Applied Biosystems, Foster City, Calif., USA) with specific mouse oligonucleotides. We used the 2^−ΔΔCt quantification method with mouse Gapdh as an endogenous control and the WT or MWT group as a calibrator.

[2] = test system: cytokines secreted by colon explants; experiment: Cytokines secreted by colon explants (ELISA) of DSS-exposed mice treated with Ficz; type: in vivo, mouse
Procedure: as §1
MLNs and spleens were sieved through a 70-μm cell strainer (BD, Le Pont De Claix, France) in complete RPMI 1640 medium (10% heat-inactivated fetal calf serum, 2 mM L-glutamine, 50 IU/ml penicillin, and 50 μg/ml streptomycin; Sigma-Aldrich), and 1×10^6 cells per well were cultured (37° C., 10% CO2) for 48 h with stimulation by phorbol 12-myristate 13-acetate (PMA, 50 ng/ml; Sigma-Aldrich) and ionomycin (1 μM; Sigma-Aldrich). The culture supernatant was frozen at −80° C. until processing. To measure the cytokine levels in the colonic explants, tissues from the medium colon were isolated and rinsed in phosphate buffered saline (PBS; Gibco, Paisley, United Kingdom). The colonic explants were cultured (37° C., 10% CO2) overnight in 24-well tissue culture plates (Costar, Corning, Amsterdam, The Netherlands) in 1 ml of complete RPMI 1640 medium. The culture supernatants were collected and stored at −80° C. until processing. ELISAs were performed on the supernatants to quantify mouse cytokines according to the manufacturer's instructions: IL10, IL17A, and IFNγ (Mabtech, Nacka Strand, Sweden); IL22 (eBioscience, San Diego, Calif., USA); and IL6 (R&D Systems, Minneapolis, Minn., USA). For the colonic explants, cytokine concentrations were normalized according to the dry weight of each colonic explant.

[3] = test system: DSS-exposed MCard9−/− mice; experiment: DSS-induced colitis with Ficz injection in microbiota-colonized germ-free mice; type: in vivo; details: Ficz 1 μg/mouse i.p. 1 day after DSS; Ficz-treated MCard9−/− mice vs non-treated counterparts during recovery
Procedure: Fresh stool samples from WT or Card9^−/− mice were immediately transferred to an anaerobic chamber, in which the stool samples were suspended and diluted 1:100 in LYHBHI medium (BD Difco, Le Pont De Claix, France) supplemented with cellobiose (1 mg/ml; Sigma-Aldrich, St. Louis, Mo., USA), maltose (1 mg/ml; Sigma-Aldrich), and cysteine (0.5 mg/ml; Sigma-Aldrich). Four- to five-week-old WT germ-free mice were randomly assigned to two groups and inoculated via oral gavage with 400 μl of fecal suspension from the conventional wild-type (MWT) or Card9^−/− (MCard9^−/−) mice and maintained in separated isolators. One aliquot of each fecal suspension was stored at −80° C. […]
To induce colitis, the mice were administered drinking water supplemented with 2% (w/v) dextran sulfate sodium (DSS; MP Biomedicals, LLC, Aurora, Ohio, USA) for 7 days, and then allowed to recover by drinking unsupplemented water for the next 5 days (FIG. 7 a). […] Body weight, gross blood, and stool consistency were analyzed daily. The severity of colitis was assessed using the disease activity index (DAI) as previously described (6).
Colon samples for histological studies were maintained at 4° C. in 4% paraformaldehyde and then embedded in paraffin. […] The number of cleaved caspase-3-positive cells in 100 μm of analyzed colon was counted. Ki67 was quantified as a percentage of the total height of each crypt. […]

[4] = test system: DSS-exposed MWT and MCard9−/− mice; experiment: DSS-induced colitis with antifungal treatment in MWT and MCard9−/− mice; type: in vivo, mouse; details: fluconazole 0.5 mg/ml in drinking water from 1 week before DSS
Procedure: as §1

[5] = test system: Card9−/−→GF mice; experiment: DSS-induced colitis in Card9−/−→GF mice supplemented with three Lactobacillus strains; type: in vivo; details: antagonist 100 μg/mouse i.p. three times per week, data not shown
Procedure: To induce colitis, mice were administered drinking water supplemented with 2% (wt./vol.) dextran sulfate sodium (DSS; MP Biomedicals, LLC, Aurora, Ohio, USA) for 7 days and were then allowed to recover by drinking unsupplemented water for the next 5 days. The 6-formylindolo(3,2-b)carbazole (Ficz; Enzo Life Sciences, Lausen, Switzerland) and the AHR antagonist CH223191 (AHR; Sigma-Aldrich) were resuspended in dimethyl sulfoxide (DMSO; Sigma-Aldrich) and administered intraperitoneally. Ficz was injected 1 day after DSS administration (1 μg/mouse). For the AHR treatment, WT→GF and Card9−/−→GF mice (4- to 5-week-old females) were treated (100 μg/mouse) three times per week until euthanization. Controls consisted of mice injected with DMSO vehicle alone for the Ficz and AHR treatment groups. […] The resulting sequences were aligned, inspected by eye, and compared with the online tool BLAST. Strains were identified based on the highest hit scores. These strains were deposited in the Collection Nationale de Cultures de Microorganismes (CNCM) of the Institut Pasteur and named L. murinus CNCM I-5020, L. reuteri CNCM I-5022, and L. taiwanensis CNCM I-5019. […] In all treatments, body weight, blood in stool, and stool consistency were analyzed daily. The severity of colitis was assessed using the disease activity index (DAI) as previously described (6).

[6] = test system: AhR; experiment: AhR activation luciferase reporter assay in H1L1.1c2 cells; type: cell-based, mouse; details: bacterial culture supernatant, relative to culture media (FIG. 13a)
Procedure: The H1L1.1c2 cell line containing a stably integrated DRE-driven firefly luciferase reporter plasmid pGudLuc1.1 was provided by Michael S. Denison (University of California, Davis, Calif., USA) and has been described previously (47, 48). The cells were seeded in 96-well plates at 7.5×10^4 cells/well in 100 μl of complete DMEM medium (10% heat-inactivated fetal calf serum, 50 IU/ml penicillin, and 50 μg/ml streptomycin; Sigma-Aldrich) and cultured (37° C., 10% CO2) for 24 h prior to treatment. Fresh stools from healthy and IBD patients in remission and from WT, Card9^−/−, MWT, MCard9^−/−, Ido1^−/− and germ-free mice were collected, weighed and stored at −80° C. until processing. The stools were suspended, diluted to 100 mg/ml in PBS, centrifuged (5000 g, 15 min, 4° C.) and filtered (0.2 μm; VWR, Fontenay-sous-Bois, France). Lactobacillus and Bifidobacterium spp. were grown in MRS medium (BD Difco, Le Pont De Claix, France) supplemented with 10% cysteine (Sigma-Aldrich) at 37° C. under respectively aerobic and anaerobic conditions. Allobaculum stercoricanis (DSMZ 13633) was cultivated under the recommended culture condition listed in the DSMZ. Cultured supernatants of these bacteria were stored at −80° C. until processing. […] After adding 100 μl of Promega-stabilized luciferase reagent, the luciferase activity was measured using a luminometer. […]

[7] = defect in MCard9−/− mice, Ficz 1 μg/mouse i.p.
[8] = Ficz-treated vs non-treated MCard9−/− mice

O=Cc1c2c(cc3c1=Nc1ccccc1-3)=Nc1ccccc1-2 [Ficz, 6-formylindolo[3,2-b]carbazole]
Il17 expression ([1]; colon, Ficz treatment): not altered
Il22 colonic expression [1, 7]: rescued
RegIIIβ colonic expression [1, 7]: rescued
RegIIIγ colonic expression [1, 7]: rescued
IFNgamma in the colon [2, 8]: No significant differences
IL6 in the colon [2, 8]: No significant differences
IL10 in the colon [2, 8]: No significant differences
Il17 production ([2]; colon explants cultured 24 h, Ficz treatment): not altered
colitis severity (body weight loss, histology score, colon shortening) [3]: weaker colitis severity

OC(Cn1cncn1)(Cn1cncn1)c1ccc(F)cc1F [antifungal, fluconazole]
colitis phenotype (weight loss and DAI) of MCard9−/− vs MWT mice [4]: did not modify the phenotype

Cc1ccccc1N=Nc1ccc(NC(=O)c2ccnn2C)c(C)c1 [AHR antagonist, CH223191]
effects of the three Lactobacillus strains in the presence of an AHR antagonist [5]: abrogated

Lactobacillus reuteri
AhR activation by cultured supernatants [6]: strongly activate AhR

Reference: patent publication US10736927B2, “Pharmaceutical compositions for preventing or treating inflammatory bowel diseases” (INSERM (INSTITUT NATIONAL DE LA SANTE ET DE LA RECHERCHE …, priority 2015, dated 2020)
